Among the data in patent publication US20250163104A1, “MACROCYCLIC IMMUNOMODULATORS” (priority 2021, published 2025) are IC50 values, retold here.

The target of this assay is T1, human PD-1 / PD-L1-Ig binding on Jurkat cell line over-expressing human PD-1 (Jurkat-PD-1) (Homo sapiens, UniProt Q15116).
T1 construct: expressed in transfected cells; host or cells: Jurkat
In words: Jurkat-PD-1 Cell Binding High-Content Screening Assay (CBA). The assay is classed as cell-based. The following applies: PE-labeled PD-L1-Ig 20 nM final. Put shortly: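 Cell-bound PE-labeled PD-L1-Ig (20 nM final, 1 h) measured by high-content imaging after fixation and Hoechst 33342 counterstain. Compound was applied first for 2 h at 37° C. to Jurkat cells over-expressing human PD-1 in DMEM with 10% FCS.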

Setting [1] is: Jurkat-PD-1 cells, read-out: Jurkat HPD1_PDL1 IC50.

Molecules are shown by their SMILES. Where two headings read alike, the source gives them in different places. Where a SMILES comes first, the peptide text is derived from it. Bridges are numbered along the chain shown (N, C = ends). [ ]: non-standard residue; d: D form. The star is where a group is joined. ξ: configuration not given here. Ala(1H-tetrazol-5-yl) = N[C@@H](Cc1nnn[nH]1)C(=O)O; Phe(4-COOH) = N[C@@H](Cc1ccc(C(=O)O)cc1)C(=O)O; Bip = N[C@@H](Cc1ccc(-c2ccccc2)cc1)C(=O)O; Phe(3-Me) = Cc1cccc(C[C@H](N)C(=O)O)c1; Val(3-OH) = CC(C)(O)[C@H](N)C(=O)O; 4Pal = N[C@@H](Cc1ccncc1)C(=O)O; Cha = N[C@@H](CC1CCCCC1)C(=O)O; Cit = NC(=O)NCCC[C@H](N)C(=O)O; Thr(3ξ) = CC(O)[C@H](N)C(=O)O; hSer = N[C@@H](CCO)C(=O)O; Carboxymethyl = O=C(O)C*; Nle = CCCC[C@H](N)C(=O)O; Orn = NCCC[C@H](N)C(=O)O; Dab = NCC[C@H](N)C(=O)O; Nva = CCC[C@H](N)C(=O)O; Dap = NC[C@H](N)C(=O)O; Propargyl = C#CC*

T1 sequence (Q15116 25-288): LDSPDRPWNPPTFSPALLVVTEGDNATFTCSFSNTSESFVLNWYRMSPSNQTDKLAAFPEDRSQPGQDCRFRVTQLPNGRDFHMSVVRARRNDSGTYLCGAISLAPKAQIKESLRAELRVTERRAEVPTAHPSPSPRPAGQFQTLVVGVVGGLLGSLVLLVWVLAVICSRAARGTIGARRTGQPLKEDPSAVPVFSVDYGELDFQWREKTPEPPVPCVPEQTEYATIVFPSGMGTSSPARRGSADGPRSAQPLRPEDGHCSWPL

As to `CC(C)C[C@H]1NC(=O)[C@H](CCCN)NC(=O)[C@H](CCCNC(N)=O)NC(=O)[C@H](Cc2ccc(-c3ccccc3)cc2)NC(=O)[C@H](C(C)C)NC(=O)[C@H](Cc2c[nH]c3ccccc23)NC(=O)[C@H](CC(=O)O)NC(=O)[C@H](Cc2ccc(OCC(=O)O)cc2)NC(=O)[C@H](CN)NC(=O)CSC[C@@H](C(=O)N[C@@H](C)C(N)=O)NC(=O)[C@H]([C@@H](C)O)NC(=O)[C@H](C(C)C)NC(=O)[C@H](CC2CCCCC2)NC(=O)[C@H](CCN)NC1=O` [Compound 1308] ({CH2CO}-[Dap]Y(Carboxymethyl)DWV[Bip][Cit][Orn][dL][Dab][Cha]VTCA-NH2; thioether N-14), the IC50 (as a rule, the concentration that gives 50% inhibition) under setting [1] is 12.6 nM.
On the same count and under the same terms, the same measure for `C#CCOc1ccc(C[C@@H]2NC(=O)[C@H](Cc3cccc(C)c3)NC(=O)[C@H](CC(=O)O)NC(=O)[C@H](Cc3ccc(C(=O)O)cc3)NC(=O)[C@H](CCC)NC(=O)CSC[C@@H](C(=O)N[C@@H](CCN)C(N)=O)NC(=O)[C@H](CCC(=O)O)NC(=O)[C@H](C(C)C)NC(=O)[C@H](CC3CCCCC3)NC(=O)[C@H](CCN)NC(=O)[C@@H](CC(C)C)NC(=O)[C@H](CCCN)NC(=O)[C@H](Cc3ccc(C(=O)O)cc3)NC(=O)[C@H](Cc3ccc(-c4ccccc4)cc3)NC2=O)cc1` [Compound 1830] ({CH2CO}-[Nva][Phe(4-COOH)]D[Phe(3-Me)]Y(Propargyl)[Bip][Phe(4-COOH)][Orn][dL][Dab][Cha]VEC[Dab]-NH2; thioether N-14): 3.6 nM; for `CCCC[C@@H]1NC(=O)[C@H](Cc2c[nH]c3ccccc23)NC(=O)[C@H](CC(=O)O)NC(=O)[C@H](Cc2ccc(OCC(=O)O)cc2)NC(=O)[C@H](CN)NC(=O)CSC[C@@H](C(=O)N[C@@H](C)C(N)=O)NC(=O)[C@H]([C@@H](C)O)NC(=O)[C@H](C(C)C)NC(=O)[C@H](CC2CCCCC2)NC(=O)[C@H](CCN)NC(=O)[C@@H](CC(C)C)NC(=O)[C@H](CCCN)NC(=O)[C@H]([C@@H](C)CC)NC(=O)[C@H](Cc2ccc(-c3ccccc3)cc2)NC1=O` [Compound 1726] ({CH2CO}-[Dap]Y(Carboxymethyl)DW[Nle][Bip]I[Orn][dL][Dab][Cha]VTCA-NH2; thioether N-14): 13.1 nM; for `CC(C)C[C@@H]1NC(=O)[C@H](Cc2c[nH]c3ccccc23)NC(=O)[C@H](CC(=O)O)NC(=O)[C@H](Cc2ccc(O)cc2)NC(=O)[C@H](Cc2ccccc2)NC(=O)CSC[C@@H](C(=O)N[C@@H](C)C(N)=O)NC(=O)[C@H]([C@@H](C)O)NC(=O)[C@H](C(C)C)NC(=O)[C@H](CC(C)C)NC(=O)[C@H](CC(N)=O)NC(=O)[C@@H](C)NC(=O)[C@H](CCN)NC(=O)[C@H](C(C)C)NC(=O)[C@H](Cc2ccc(-c3ccccc3)cc2)NC1=O` [Compound 1101] ({CH2CO}-FYDWL[Bip]V[Dab][dA]NLVTCA-NH2; thioether N-14): 127 nM.
For `Cc1cccc(C[C@@H]2NC(=O)[C@H](Cc3nn[nH]n3)NC(=O)[C@H](Cc3ccc(OCC(=O)O)cc3)NC(=O)[C@H](CN)NC(=O)CSC[C@@H](C(=O)N[C@@H](C)C(N)=O)NC(=O)[C@H]([C@@H](C)O)NC(=O)[C@H](C(C)C)NC(=O)[C@H](CC3CCCCC3)NC(=O)[C@H](CCN)NC(=O)[C@@H](CC(C)C)NC(=O)[C@H](CCCN)NC(=O)[C@H](CCCNC(N)=O)NC(=O)[C@H](Cc3ccc(-c4ccccc4)cc3)NC(=O)[C@H](C(C)C)NC2=O)c1` [Compound 1327] ({CH2CO}-[Dap]Y(Carboxymethyl)[Ala(1H-tetrazol-5-yl)][Phe(3-Me)]V[Bip][Cit][Orn][dL][Dab][Cha]VTCA-NH2; thioether N-14), under setting [1], the IC50 amounted to 31.6 nM.
As to `Cc1cccc(C[C@@H]2NC(=O)[C@H](CC(=O)O)NC(=O)[C@H](Cc3ccncc3)NC(=O)[C@H](CN)NC(=O)CSC[C@@H](C(N)=O)NC(=O)[C@H]([C@@H](C)O)NC(=O)[C@H](C(C)C)NC(=O)[C@H](CC(C)C)NC(=O)[C@H](CCN)NC(=O)[C@@H](CC(C)C)NC(=O)[C@H](CCCN)NC(=O)[C@H](C(C)C)NC(=O)[C@H](Cc3ccc(-c4ccccc4)cc3)NC(=O)[C@H](C(C)C)NC2=O)c1` [Compound 1550] ({CH2CO}-[Dap][4Pal]D[Phe(3-Me)]V[Bip]V[Orn][dL][Dab]LVTC-NH2; thioether N-14), the IC50 under setting [1] amounted to 94.5 nM.
The same measure, in the same setting: the same measure for `Cc1cccc(C[C@@H]2NC(=O)[C@H](CC(N)=O)NC(=O)[C@H](Cc3ccc(C(=O)O)cc3)NC(=O)[C@H](CCN)NC(=O)CSC[C@@H](C(=O)N[C@@H](CCN)C(N)=O)NC(=O)[C@H](CO)NC(=O)[C@H](C(C)(C)O)NC(=O)[C@H](CC3CCCCC3)NC(=O)[C@H](CCN)NC(=O)[C@@H](CC(C)C)NC(=O)[C@H](CCCN)NC(=O)[C@H](Cc3ccc(C(=O)O)cc3)NC(=O)[C@H](Cc3ccc(-c4ccccc4)cc3)NC(=O)[C@H](Cc3ccc(C(=O)O)cc3)NC2=O)c1` [Example 2720] ({CH2CO}-[Dab][Phe(4-COOH)]N[Phe(3-Me)][Phe(4-COOH)][Bip][Phe(4-COOH)][Orn][dL][Dab][Cha][Val(3-OH)]SC[Dab]-NH2; thioether N-14): 101 nM.
Still for that read-out and setting: then `CC(C)C[C@@H]1NC(=O)[C@H](Cc2c[nH]c3ccccc23)NC(=O)[C@H](CC(=O)O)NC(=O)[C@H](Cc2ccc(O)cc2)NC(=O)[C@H](Cc2ccccc2)NC(=O)CSC[C@@H](C(=O)NCC(N)=O)NC(=O)[C@H]([C@@H](C)O)NC(=O)[C@H](C(C)C)NC(=O)[C@H](CC(C)C)NC(=O)[C@H](CCN)NC(=O)[C@@H](C)NC(=O)[C@H](CN)NC(=O)[C@H](C(C)C)NC(=O)[C@H](Cc2ccc(-c3ccccc3)cc2)NC1=O` [Compound 1078] ({CH2CO}-FYDWL[Bip]V[Dap][dA][Dab]LVTCG-NH2; thioether N-14), with 40.2 nM; and `Cc1cccc(C[C@@H]2NC(=O)[C@H](CC(=O)O)NC(=O)[C@H](Cc3ccc(OCC(=O)O)cc3)NC(=O)[C@H](CCCNC(=N)N)NC(=O)CSC[C@@H](C(=O)N[C@@H](CO)C(N)=O)NC(=O)[C@H](CO)NC(=O)[C@H](C(C)C)NC(=O)[C@H](CC3CCCCC3)NC(=O)[C@H](CCCNC(=N)N)NC(=O)[C@@H](CC(C)C)NC(=O)[C@H](CCCN)NC(=O)[C@H](CCCNC(N)=O)NC(=O)[C@H](Cc3ccc(-c4ccccc4)cc3)NC(=O)[C@H](C(C)C)NC2=O)c1` [Compound 2597] ({CH2CO}-RY(Carboxymethyl)D[Phe(3-Me)]V[Bip][Cit][Orn][dL]R[Cha]VSCS-NH2; thioether N-14), with 12.9 nM.
Consider `CC(C)C[C@@H]1NC(=O)[C@H](Cc2c[nH]c3ccccc23)NC(=O)[C@H](CC(=O)O)NC(=O)[C@H](Cc2ccc(O)cc2)NC(=O)[C@H](Cc2ccccc2)NC(=O)CSC[C@@H](C(=O)NCC(N)=O)NC(=O)[C@H]([C@@H](C)O)NC(=O)[C@H](C(C)C)NC(=O)[C@H](CC(C)C)NC(=O)[C@H](CC(N)=O)NC(=O)[C@@H](C)NC(=O)[C@H](CCCN)NC(=O)[C@H](C(C)C)NC(=O)[C@H](Cc2ccc(-c3ccccc3)cc2)NC1=O` [Compound 1107] ({CH2CO}-FYDWL[Bip]V[Orn][dA]NLVTCG-NH2; thioether N-14), for which the IC50 (Jurkat HPD1_PDL1 IC50, Jurkat-PD-1 cells) was 310 nM.
In the case of `Cc1cccc(C[C@@H]2NC(=O)[C@H](CC(=O)O)NC(=O)[C@H](Cc3ccc(OCC(=O)O)cc3)NC(=O)[C@H](Cc3ccncc3)NC(=O)CSC[C@@H](C(=O)N[C@@H](CCN)C(N)=O)NC(=O)[C@H](C(C)O)NC(=O)[C@H](C(C)(C)O)NC(=O)[C@H](CC3CCCCC3)NC(=O)[C@H](CCN)NC(=O)[C@@H](CC(C)C)NC(=O)[C@H](CCCN)NC(=O)[C@H](CCCNC(N)=O)NC(=O)[C@H](Cc3ccc(-c4ccccc4)cc3)NC(=O)[C@H](C(C)C)NC2=O)c1` (stereo partly drawn) [Compound 2630] ({CH2CO}-[4Pal]Y(Carboxymethyl)D[Phe(3-Me)]V[Bip][Cit][Orn][dL][Dab][Cha][Val(3-OH)][Thr(3ξ)]C[Dab]-NH2; thioether N-14), the IC50 under setting [1] amounted to 12.3 nM.
The same measure, in the same setting: then `Cc1cccc(C[C@@H]2NC(=O)[C@H](CC(=O)O)NC(=O)[C@H](Cc3ccc(C(=O)O)cc3)NC(=O)[C@H](Cc3ccncc3)NC(=O)CSC[C@@H](C(=O)N[C@@H](CC(N)=O)C(N)=O)NC(=O)[C@H](CO)NC(=O)[C@H](C(C)C)NC(=O)[C@H](CC3CCCCC3)NC(=O)[C@H](CCN)NC(=O)[C@@H](CC(C)C)NC(=O)[C@H](CCCN)NC(=O)[C@H](Cc3ccc(O)cc3)NC(=O)[C@H](Cc3ccc(-c4ccccc4)cc3)NC(=O)[C@H](Cc3ccc(O)cc3)NC2=O)c1` [Compound 2284] ({CH2CO}-[4Pal][Phe(4-COOH)]D[Phe(3-Me)]Y[Bip]Y[Orn][dL][Dab][Cha]VSCN-NH2; thioether N-14), with 4.1 nM; and `COCC[C@@H]1NC(=O)CSC[C@@H](C(=O)N[C@@H](CCN)C(N)=O)NC(=O)[C@H](CO)NC(=O)[C@H](C(C)(C)O)NC(=O)[C@H](CC2CCCCC2)NC(=O)[C@H](CCN)NC(=O)[C@@H](CC(C)C)NC(=O)[C@H](CCCN)NC(=O)[C@H](Cc2ccc(OCC(=O)O)cc2)NC(=O)[C@H](Cc2ccc(-c3ccccc3)cc2)NC(=O)[C@H](Cc2ccc(OCC(=O)O)cc2)NC(=O)[C@H](Cc2cccc(C)c2)NC(=O)[C@H](CC(=O)O)NC(=O)[C@H](Cc2ccc(C(=O)O)cc2)NC1=O` [Compound 2079] ({CH2CO}-[hSer](Me)[Phe(4-COOH)]D[Phe(3-Me)]Y(Carboxymethyl)[Bip]Y(Carboxymethyl)[Orn][dL][Dab][Cha][Val(3-OH)]SC[Dab]-NH2; thioether N-14), with 6.3 nM; and `CC(C)C[C@@H]1NC(=O)[C@H](CCCNC(=N)N)NC(=O)[C@@H](CC(C)C)NC(=O)[C@H](C)NC(=O)[C@H](CCCNC(=N)N)NC(=O)[C@H](Cc2ccc(-c3ccccc3)cc2)NC(=O)[C@H](C(C)C)NC(=O)[C@H](Cc2c[nH]c3ccccc23)NC(=O)[C@H](CC(=O)O)NC(=O)[C@H](Cc2ccc(O)cc2)NC(=O)[C@H](CC(N)=O)NC(=O)CSC[C@@H](C(=O)N[C@@H](C)C(N)=O)NC(=O)[C@H]([C@@H](C)O)NC(=O)[C@H](C(C)C)NC1=O` [Compound 1006] ({CH2CO}-NYDWV[Bip]RA[dL]RLVTCA-NH2; thioether N-14), with 98.1 nM.
